Values quoted from earlier work, collected in patent publication US20140187648A1, “Identifying Subjects in Need of Treatment” (HOWARD FOUNDATION HOLDINGS LTD., priority 2013, published 2014).

Tested on: subjects who exhibit an abnormally low concentration of MP in the central portion of the retina

| Compound | effect on MP (subjects with abnormally low MP in the central portion of the retina) | MP levels outside the central portion of the retina (subjects with abnormally low central MP) | MP levels in the central portion of the retina (subjects with abnormally low central MP, eccentricity 0.25° or less) |
| --- | --- | --- | --- |
| CC1=C[C@H](O)CC(C)(C)[C@H]1/C=C/C(C)=C/C=C/C(C)=C/C=C/C=C(C)/C=C/C=C(C)/C=C/C1=C(C)C[C@@H](O)CC1(C)C [lutein, reference compound] | little effect |  |  |
| meso-zeaxanthin [MZ] |  | little effect | return MP levels in the central portion of the retina substantially to normal |
